In patent US20250206732A1, “COMPOUNDS AND METHODS FOR THE TARGETED DEGRADATION OF KRAS” (Arvinas Operations, Inc., priority 2022, published 2025) one finds Dmax and DC50 data, which are given here for eight compounds.

The assay addresses T1, AsPC-1 HiBiT-KRASG12D (Homo sapiens, UniProt P01116, G12D).
T1 construct: insert the HiBiT tag onto the N-terminus of one or more of the endogenous KRAS alleles; endogenous in cells; host or cells: AsPC-1 (ATCC CRL-1682), CRISPR-Cas9 knock-in clone, one tagged allele
In words: HiBiT degradation assay (G12D), AsPC-1 HiBiT-KRASG12D cells. Type of assay: cell-based. The note with it: 24 hours treatment; for Dmax: ASPC1, AsPC-1 HiBiT-KRASG12D cells, maximum degradation observed; for DC50: AsPC-1 HiBiT-KRASG12D cells, HiBiT luminescence. An outline of the steps:
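In this degradation format, an engineered AsPC-1 clone with HiBiT fused to the KRAS N-terminus is exposed to compounds for 24 hours, after which remaining tagged protein is quantified by lytic HiBiT luminescence.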

T1 sequence (P01116 1-188 isoform P01116-2 G12D): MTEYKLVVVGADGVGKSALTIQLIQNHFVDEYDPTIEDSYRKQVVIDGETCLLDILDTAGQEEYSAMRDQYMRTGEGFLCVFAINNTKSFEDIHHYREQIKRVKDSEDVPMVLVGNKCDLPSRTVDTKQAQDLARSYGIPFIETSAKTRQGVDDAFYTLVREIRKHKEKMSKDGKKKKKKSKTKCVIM

The Dmax is the largest share of the target that was removed. Low values mean a partial loss of target, high ones a fuller loss of target. The term DC50 denotes the concentration at which degradation of the target reaches its halfway point. Low readings indicate a more potent degrader, high ones a less potent degrader. As to `CCc1cccc2cc(O)cc(-c3ncc4c(N5CCCCCC5)nc(OC[C@]56CCCN5[C@H](COC(=O)N5CCC(Oc7cc([C@@H](C(=O)N8C[C@H](O)C[C@H]8C(=O)N[C@@H](C)c8ccc(-c9scnc9C)cc8)C(C)C)on7)CC5)CC6)nc4c3F)c12` [Compound 282, [(3S,8R)-8-[[4-(azepan-1-yl)-7-(8-ethyl-3-hydroxy-1-naphthyl)-8-fluoro-pyrido[4,3-d]pyrimidin-2-yl]oxymethyl]-1,2,3,5,6,7-hexahydropyrrolizin-3-yl]methyl 4-[5-[(1S)-1-[(2S,4R)-4-hydroxy-2-[[(1S)-1-[4-(4-methylthiazol-5-yl)phenyl]ethyl]carbamoyl]pyrrolidine-1-carbonyl]-2-methyl-propyl]isoxazol-3-yl]oxypiperidine-1-carboxylate], the Dmax was less than 20% and the DC50 fell in the range of 600 to 1000 nM.
As for `C#Cc1c(F)ccc2cc(O)cc(-c3ncc4c(N5CC6CCC(C5)N6)nc(OCCN5CCC(CC6CCN(c7cc([C@H](C(=O)N8C[C@H](O)C[C@H]8C(=O)N[C@@H](C)c8ccc(-c9scnc9C)cc8)C(C)C)on7)CC6)CC5)nc4c3F)c12` (relative stereo) [Compound 307, (2S,4R)-1-((R)-2-(3-(4-((1-(2-((4-((1R,5S)-3,8-diazabicyclo[3.2.1]octan-3-yl)-7-(8-ethynyl-7-fluoro-3-hydroxynaphthalen-1-yl)-8-fluoropyrido[4,3-d]pyrimidin-2-yl)oxy)ethyl)piperidin-4-yl)methyl)piperidin-1-yl)isoxazol-5-yl)-3-methylbutanoyl)-4-hydroxy-N—((S)-1-(4-(4-methylthiazol-5-yl)phenyl)ethyl)pyrrolidine-2-carboxamide], the Dmax was 80 to 100% and the DC50 was less than 600 nM.
The like results for `CCc1cccc2cc(O)cc(-c3ncc4c(N5CC6CCC(C5)N6)nc(OC[C@]56CCCN5[C@H](COC(=O)N5C[C@H](C)N(c7cc([C@H](C(=O)N8C[C@H](O)C[C@H]8C(=O)N[C@@H](C)c8ccc(-c9scnc9C)cc8)C(C)C)on7)C[C@H]5C)CC6)nc4c3F)c12` [Compound 296, [(3S,8R)-8-[[4-(3,8-diazabicyclo[3.2.1]octan-3-yl)-7-(8-ethyl-3-hydroxy-1-naphthyl)-8-fluoro-pyrido[4,3-d]pyrimidin-2-yl]oxymethyl]-1,2,3,5,6,7-hexahydropyrrolizin-3-yl]methyl (2R,5S)-4-[5-[(1R)-1-[(2S,4R)-4-hydroxy-2-[[(1S)-1-[4-(4-methylthiazol-5-yl)phenyl]ethyl]carbamoyl]pyrrolidine-1-carbonyl]-2-methyl-propyl]isoxazol-3-yl]-2,5-dimethyl-piperazine-1-carboxylate] were, in that order, 80 to 100% and less than 600 nM.
The like results for `CCc1cccc2cc(O)cc(-c3ncc4c(N5CC6CCC(C5)N6)nc(OC[C@@]56CCCN5[C@H](CN5CCC7(CC5)CN(c5cc([C@H](C(=O)N8C[C@H](O)C[C@H]8C(=O)N[C@@H](C)c8ccc(-c9scnc9C)cc8)C(C)C)on5)C7)CC6)nc4c3F)c12` [Compound 88, (2S,4R)-1-[(2R)-2-[3-(7-{[(3S,7aS)-7a-{[(4-{3,8-diazabicyclo[3.2.1]octan-3-yl}-7-(8-ethyl-3-hydroxynaphthalen-1-yl)-8-fluoropyrido[4,3-d]pyrimidin-2-yl)oxy]methyl}-hexahydro-1H-pyrrolizin-3-yl]methyl}-2,7-diazaspiro[3.5]nonan-2-yl)-1,2-oxazol-5-yl]-3-methylbutanoyl]-4-hydroxy-N-[(1S)-1-[4-(4-methyl-1,3-thiazol-5-yl)phenyl]ethyl]pyrrolidine-2-carboxamide] were, in that order, 80 to 100% and less than 600 nM.
In turn, `C#Cc1c(F)ccc2cccc(-c3ncc4c(N5CC6CCC(C5)N6)nc(OC[C@]56CCCN5[C@H](COc5cc([C@@H](C(=O)N7C[C@H](O)C[C@H]7C(=O)N[C@@H](C)c7ccc(-c8scnc8C)cc7)C(C)C)on5)CC6)nc4c3F)c12` [Compound 317, (2S,4R)-1-[(2R)-2-[3-[[(3S,8R)-8-[[4-(3,8-diazabicyclo[3.2.1]octan-3-yl)-7-(8-ethynyl-7-fluoro-1-naphthyl)-8-fluoro-pyrido[4,3-d]pyrimidin-2-yl]oxymethyl]-1,2,3,5,6,7-hexahydropyrrolizin-3-yl]methoxy]isoxazol-5-yl]-3-methyl-butanoyl]-4-hydroxy-N-[(1S)-1-[4-(4-methylthiazol-5-yl)phenyl]ethyl]pyrrolidine-2-carboxamide] gave a Dmax of 80 to 100% and a DC50 of less than 600 nM.
The like results for `C#Cc1c(F)ccc2cc(O)cc(-c3ncc4c(N5CC6CCC(C5)N6)nc(OCCN5CCC(CC6CN(c7cc([C@H](C(=O)N8C[C@H](O)C[C@H]8C(=O)N[C@@H](C)c8ccc(-c9ccnn9C)cc8)C(C)C)on7)C6)CC5)nc4c3F)c12` [Compound 156, (2S,4R)-1-[(2R)-2-(3-{3-[(1-{2-[(4-{3,8-diazabicyclo[3.2.1]octan-3-yl}-7-(8-ethynyl-7-fluoro-3-hydroxynaphthalen-1-yl)-8-fluoropyrido[4,3-d]pyrimidin-2-yl)oxy]ethyl}piperidin-4-yl)methyl]azetidin-1-yl}-1,2-oxazol-5-yl)-3-methylbutanoyl]-4-hydroxy-N-[(1S)-1-[4-(1-methyl-1H-pyrazol-5-yl)phenyl]ethyl]pyrrolidine-2-carboxamide] were, in that order, 80 to 100% and less than 600 nM.
Compound `CCc1cccc2cc(O)cc(-c3ncc4c(N5CC6CCC(C5)N6)nc(OC[C@]56CCCN5[C@H](COC(=O)N5CCN(c7cc([C@@H](C(=O)N8C[C@H](O)C[C@H]8C(=O)N[C@@H](C)c8ccc(-c9scnc9C)cc8)C(C)C)on7)C[C@@H]5C)CC6)nc4c3F)c12` [Compound 133, [(3S,7aR)-7a-{[(4-{3,8-diazabicyclo[3.2.1]octan-3-yl}-7-(8-ethyl-3-hydroxynaphthalen-1-yl)-8-fluoropyrido[4,3-d]pyrimidin-2-yl)oxy]methyl}-hexahydro-1H-pyrrolizin-3-yl]methyl (2S)-4-{5-[(2S)-1-[(2S,4R)-4-hydroxy-2-{[(1S)-1-[4-(4-methyl-1,3-thiazol-5-yl)phenyl]ethyl]carbamoyl}pyrrolidin-1-yl]-3-methyl-1-oxobutan-2-yl]-1,2-oxazol-3-yl}-2-methylpiperazine-1-carboxylate] displayed a Dmax of less than 20% and a DC50 of less than 600 nM.
`CCc1cccc2cc(O)cc(-c3ncc4c(N5CC6CCC(C5)N6)nc(N5CC(CN6CCC(CC7CN(c8cc([C@@H](C(=O)N9C[C@H](O)C[C@H]9C(=O)N[C@@H](C)c9ccc(-c%10scnc%10C)cc9)C(C)C)on8)C7)CC6)C5)nc4c3F)c12` [Compound 189, (2S,4R)-1-[(2S)-2-(3-{3-[(1-{[1-(4-{3,8-diazabicyclo[3.2.1]octan-3-yl}-7-(8-ethyl-3-hydroxynaphthalen-1-yl)-8-fluoropyrido[4,3-d]pyrimidin-2-yl)azetidin-3-yl]methyl}piperidin-4-yl)methyl]azetidin-1-yl}-1,2-oxazol-5-yl)-3-methylbutanoyl]-4-hydroxy-N-[(1S)-1-[4-(4-methyl-1,3-thiazol-5-yl)phenyl]ethyl]pyrrolidine-2-carboxamide] registered a DC50 of more than 3000 nM.
